{"source": "BindingDB's records for PubMed 7473144", "about": "(Gliatech, 1995)", "biological_target": "Hrh3 protein (Rattus norvegicus, UniProt Q5PPG3)", "sequence (Q5PPG3 whole entry)": "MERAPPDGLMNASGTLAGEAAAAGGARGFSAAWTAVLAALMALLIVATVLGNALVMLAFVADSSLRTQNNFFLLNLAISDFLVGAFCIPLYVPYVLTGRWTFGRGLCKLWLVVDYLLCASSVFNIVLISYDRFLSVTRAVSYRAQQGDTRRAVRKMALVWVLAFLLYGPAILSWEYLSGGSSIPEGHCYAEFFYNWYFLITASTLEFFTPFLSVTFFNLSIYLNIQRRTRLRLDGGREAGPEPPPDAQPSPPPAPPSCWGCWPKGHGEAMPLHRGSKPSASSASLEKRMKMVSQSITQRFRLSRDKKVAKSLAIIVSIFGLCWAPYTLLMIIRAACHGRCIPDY", "data": [{"smiles": "S=C(NC1CCCCC1)N1CCC(c2cnc[nH]2)CC1", "values": [{"measurement": "Ki", "result": 1.8, "unit": "nM"}]}]}
